From ChEMBL document CHEMBL1201861, “Genomics of Drug Sensitity in Cancer screening data, Wellcome Trust Sanger Institute”
Where “and” joins values, the source holds several entries; their conditions need not be identical. Equal entries are not always repeated. Where a SMILES comes first, the peptide text is derived from it. The star is where a group is joined. Cbz = O=C(OCc1ccccc1)*

Experiments:
[1] = system: NCI-H1693; test: cells; assay type: functional, cell-based; details: Homo sapiens;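 further: growth inhibition of the human cell line, read out with a cell viability assay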
Description: SANGER: Inhibition of human NCI-H1693 cell growth in a cell viability assay.

[2] = system: OVCAR-3; test: cells; assay type: functional, cell-based; details: Homo sapiens;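 further: growth inhibition of human OVCAR-3 cells, determined by a cell viability assay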
Description: SANGER: Inhibition of human OVCAR-3 cell growth in a cell viability assay.

[3] = system: UACC-812; test: cells; assay type: functional, cell-based; details: Homo sapiens
Description: SANGER: Inhibition of human UACC-812 cell growth in a cell viability assay.

[4] = system: NCI-H358; test: cells; assay type: functional, cell-based; details: Homo sapiens;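 further: growth inhibition of NCI-H358 human cells, read out with a cell viability assay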
Description: SANGER: Inhibition of human NCI-H358 cell growth in a cell viability assay.

[5] = system: BEN; test: cells; assay type: functional, cell-based; details: Homo sapiens;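 further: growth inhibition of the BEN cell line, read out with a cell viability assay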
Description: SANGER: Inhibition of human BEN cell growth in a cell viability assay.

[6] = system: CHP-212; test: cells; assay type: functional, cell-based; details: Homo sapiens
Description: SANGER: Inhibition of human CHP-212 cell growth in a cell viability assay.

[7] = system: SNG-M; test: cells; assay type: functional, cell-based; details: Homo sapiens
Description: SANGER: Inhibition of human SNG-M cell growth in a cell viability assay.

[8] = system: NCI-H1792; test: cells; assay type: functional, cell-based; details: Homo sapiens;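 further: growth inhibition of human NCI-H1792 cells, read out as cell viability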
Description: SANGER: Inhibition of human NCI-H1792 cell growth in a cell viability assay.

[9] = system: SNU-475; test: cells; assay type: functional, cell-based; details: Homo sapiens
Description: SANGER: Inhibition of human SNU-475 cell growth in a cell viability assay.

[10] = system: LOUCY; test: cells; assay type: functional, cell-based, Homo sapiens;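 further: growth inhibition of human LOUCY cells, read out with a cell viability assay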
Description: SANGER: Inhibition of human LOUCY cell growth in a cell viability assay.

[11] = system: BFTC-905; test: cells; assay type: functional, cell-based; details: Homo sapiens
Description: SANGER: Inhibition of human BFTC-905 cell growth in a cell viability assay.

[12] = system: LCLC-97TM1; test: cells; assay type: functional, cell-based; details: Homo sapiens;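 further: cell viability assay measuring growth inhibition of human LCLC-97TM1 cells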
Description: SANGER: Inhibition of human LCLC-97TM1 cell growth in a cell viability assay.

[13] = system: COLO-741; test: cells; assay type: functional, cell-based; details: Homo sapiens
Description: SANGER: Inhibition of human COLO-741 cell growth in a cell viability assay.

[14] = system: RERF-LC-MS; test: cells; assay type: functional, cell-based; details: Homo sapiens;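 further: growth inhibition of human RERF-LC-MS cells, read out by a cell viability assay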
Description: SANGER: Inhibition of human RERF-LC-MS cell growth in a cell viability assay.

[15] = system: MCF7; test: cells; assay type: functional, cell-based; details: Homo sapiens;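 further: growth inhibition of human MCF7 cells, read out with a cell viability assay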
Description: SANGER: Inhibition of human MCF7 cell growth in a cell viability assay.

[16] = system: EFO-21; test: cells; assay type: functional, cell-based; details: Homo sapiens;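 further: growth inhibition of EFO-21 cells measured with a viability assay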
Description: SANGER: Inhibition of human EFO-21 cell growth in a cell viability assay.

[17] = system: EW-24; test: cells; assay type: functional, cell-based, Homo sapiens;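 further: human EW-24 cancer cell line, growth inhibition read out via a cell viability assay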
Description: SANGER: Inhibition of human EW-24 cell growth in a cell viability assay.

[18] = system: COLO 205; test: cells; assay type: functional, cell-based; details: Homo sapiens
Description: SANGER: Inhibition of human COLO-205 cell growth in a cell viability assay.

[19] = system: NCI-H1963; test: cells; assay type: functional, cell-based, Homo sapiens;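 further: cell growth inhibition of the human line, determined with a cell viability assay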
Description: SANGER: Inhibition of human NCI-H1963 cell growth in a cell viability assay.

[20] = system: DMS-53; test: cells; assay type: functional, cell-based; details: Homo sapiens;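 further: cell viability assay measuring growth inhibition of human DMS-53 cells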
Description: SANGER: Inhibition of human DMS-53 cell growth in a cell viability assay.

[21] = system: ECC4; test: cells; assay type: functional, cell-based, Homo sapiens;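 further: growth inhibition of ECC4 cells, read out with a cell viability assay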
Description: SANGER: Inhibition of human ECC4 cell growth in a cell viability assay.

[22] = system: UACC-893; test: cells; assay type: functional, cell-based; details: Homo sapiens
Description: SANGER: Inhibition of human UACC-893 cell growth in a cell viability assay.

[23] = system: CCF-STTG1; test: cells; assay type: functional, cell-based; details: Homo sapiens;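 further: growth inhibition of human CCF-STTG1 cells, determined with a cell viability read-out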
Description: SANGER: Inhibition of human CCF-STTG1 cell growth in a cell viability assay.

[24] = system: LoVo; test: cells; assay type: functional, cell-based; details: Homo sapiens;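 further: growth inhibition of human LoVo cells, read out with a cell viability assay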
Description: SANGER: Inhibition of human LoVo cell growth in a cell viability assay.

[25] = system: RL; test: cells; assay type: functional, cell-based, Homo sapiens
Description: SANGER: Inhibition of human RL cell growth in a cell viability assay.

[26] = system: OAW-42; test: cells; assay type: functional, cell-based; details: Homo sapiens;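 further: growth inhibition of OAW-42 cells, read out with a cell viability assay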
Description: SANGER: Inhibition of human OAW-42 cell growth in a cell viability assay.

[27] = system: HCC1143; test: cells; assay type: functional, cell-based; details: Homo sapiens;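 further: growth inhibition of human HCC1143 cells, read out with a cell viability assay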
Description: SANGER: Inhibition of human HCC1143 cell growth in a cell viability assay.

[28] = system: SCC-9; test: cells; assay type: functional, cell-based; details: Homo sapiens;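 further: Read-out is a cell viability assay, with values giving inhibition of cell growth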
Description: SANGER: Inhibition of human SCC-9 cell growth in a cell viability assay.

[29] = system: Detroit 562; test: cells; assay type: functional, cell-based; details: Homo sapiens;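 further: growth inhibition of human Detroit 562 cells, read out by a cell viability assay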
Description: SANGER: Inhibition of human Detroit562 cell growth in a cell viability assay.

[30] = system: NCI-H727; test: cells; assay type: functional, cell-based; details: Homo sapiens;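 further: growth inhibition of human NCI-H727 cells, read out with a cell viability assay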
Description: SANGER: Inhibition of human NCI-H727 cell growth in a cell viability assay.

[31] = system: MRK-nu-1; test: cells; assay type: functional, cell-based, Homo sapiens;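 further: cell viability assay measuring growth suppression of human MRK-nu-1 cells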
Description: SANGER: Inhibition of human MRK-nu-1 cell growth in a cell viability assay.

[32] = system: D-542MG; test: cells; assay type: functional, cell-based; details: Homo sapiens
Description: SANGER: Inhibition of human D-542MG cell growth in a cell viability assay.

[33] = system: ECC12; test: cells; assay type: functional, cell-based; details: Homo sapiens
Description: SANGER: Inhibition of human ECC12 cell growth in a cell viability assay.

[34] = system: SW-620; test: cells; assay type: functional, cell-based; details: Homo sapiens;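 further: growth inhibition of human SW-620 cells, measured by a cell viability assay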
Description: SANGER: Inhibition of human SW620 cell growth in a cell viability assay.

[35] = system: SK-CO-1; test: cells; assay type: functional, cell-based; details: Homo sapiens;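 further: growth inhibition of SK-CO-1 cells, determined by a viability readout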
Description: SANGER: Inhibition of human SK-CO-1 cell growth in a cell viability assay.

[36] = system: CMK; test: cells; assay type: functional, cell-based, Homo sapiens;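 further: growth inhibition of CMK cells, read out as cell viability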
Description: SANGER: Inhibition of human CMK cell growth in a cell viability assay.

[37] = system: PC-14; test: cells; assay type: functional, cell-based; details: Homo sapiens;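 further: cell viability assay measuring inhibition of PC-14 cell growth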
Description: SANGER: Inhibition of human PC-14 cell growth in a cell viability assay.

[38] = system: SW837; test: cells; assay type: functional, cell-based; details: Homo sapiens;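 further: growth inhibition of SW837 cells, determined with a cell viability assay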
Description: SANGER: Inhibition of human SW837 cell growth in a cell viability assay.

[39] = system: D-392MG; test: cells; assay type: functional, cell-based; details: Homo sapiens
[40] = system: C-4-II; test: SANGER: Inhibition of human C-4-II cell growth in a cell viability assay.; assay type: functional, cell-based
[41] = system: LC-1F; test: cells; assay type: functional, cell-based, Homo sapiens;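 further: growth inhibition of human LC-1F cells, read out with a cell viability assay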
Description: SANGER: Inhibition of human LC-1F cell growth in a cell viability assay.

[42] = system: NB12; test: cells; assay type: functional, cell-based; details: Homo sapiens;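 further: growth inhibition of human NB12 cells, read out by a cell viability assay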
Description: SANGER: Inhibition of human NB12 cell growth in a cell viability assay.

[43] = system: SNU-387; test: cells; assay type: functional, cell-based; details: Homo sapiens
Description: SANGER: Inhibition of human SNU-387 cell growth in a cell viability assay.

[44] = system: COR-L23; test: cells; assay type: functional, cell-based; details: Homo sapiens;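 further: cell viability assay measuring how strongly compounds suppress growth of COR-L23 cells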
Description: SANGER: Inhibition of human COR-L23 cell growth in a cell viability assay.

[45] = system: HMV-2 cell line; test: cells; assay type: functional, cell-based; details: Homo sapiens;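 further: growth inhibition of HMV-II cells, read out with a cell viability assay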
Description: SANGER: Inhibition of human HMV-II cell growth in a cell viability assay.

[46] = system: AU565; test: cells; assay type: functional, cell-based; details: Homo sapiens;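 further: cell viability assay measuring growth inhibition of human AU565 cells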
Description: SANGER: Inhibition of human AU565 cell growth in a cell viability assay.

[47] = system: SK-MEL3; test: cells; assay type: functional, cell-based, SK-MEL-3; details: Homo sapiens;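 further: growth inhibition of human SK-MEL-3 cells, read out with a cell viability assay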
Description: SANGER: Inhibition of human SK-MEL-3 cell growth in a cell viability assay.

[48] = system: GDM-1; test: cells; assay type: functional, cell-based, Homo sapiens; details: read-out: IC50;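 further: cell viability readout used to measure growth inhibition of human GDM-1 cells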
Description: SANGER: Inhibition of human GDM-1 cell growth in a cell viability assay.

[49] = system: PLC-PRF-5; test: cells; assay type: functional, cell-based; details: Homo sapiens;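 further: growth inhibition of human PLC-PRF-5 cells, read out with a viability assay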
Description: SANGER: Inhibition of human PLC-PRF-5 cell growth in a cell viability assay.

[50] = system: TCC-SUP; test: cells; assay type: functional, cell-based; details: Homo sapiens;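 further: growth inhibition of TCC-SUP cells, read out with a cell viability assay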
Description: SANGER: Inhibition of human TCCSUP cell growth in a cell viability assay.

[51] = system: SKM-1; test: SANGER: Inhibition of human SKM-1 cell growth in a cell viability assay.; assay type: functional, cell-based
[52] = system: CP67-MEL; test: SANGER: Inhibition of human CP67-MEL cell growth in a cell viability assay.; assay type: functional, cell-based
[53] = system: KP-N-RT-BM-1; test: SANGER: Inhibition of human KP-N-RT-BM-1 cell growth in a cell viability assay.; assay type: functional, cell-based

Cc1ccc(C(=O)Nc2ccc(CN3CCN(C)CC3)c(C(F)(F)F)c2)cc1C#Cc1cnc2cccnn12 [PONATINIB]
IC50 [1]: > 512 nM
IC50 [2]: > 512 nM
IC50 [3]: > 512 nM
IC50 [4]: > 512 nM
IC50 [5]: > 512 nM
IC50 [6]: > 512 nM
IC50 [7]: > 512 nM
IC50 [8]: > 512 nM
IC50 [9]: > 512 nM
IC50 ([10]; Homo sapiens, LOUCY): > 512 nM
IC50 [11]: > 512 nM
IC50 [12]: 462 nM
IC50 [13]: > 512 nM
IC50 [14]: > 512 nM
IC50 [15]: > 512 nM
IC50 [16]: 304 nM
IC50 ([17]; Homo sapiens, EW-24): > 512 nM
IC50 [18]: > 512 nM
IC50 ([19]; Homo sapiens, NCI-H1963): > 512 nM
IC50 [20]: > 512 nM
IC50 ([21]; Homo sapiens, ECC4): > 512 nM
IC50 [22]: > 512 nM
IC50 [23]: 225 nM
IC50 [24]: > 512 nM
IC50 ([25]; Homo sapiens, RL): > 512 nM
IC50 [26]: > 512 nM
IC50 [27]: > 512 nM
IC50 [28]: > 512 nM
IC50 [29]: > 512 nM
IC50 [30]: > 512 nM
IC50 ([31]; Homo sapiens, MRK-nu-1): > 512 nM
IC50 [32]: > 512 nM
IC50 [33]: > 512 nM
IC50 [34]: > 512 nM
IC50 [35]: > 512 nM
IC50 ([36]; Homo sapiens, CMK): > 512 nM
IC50 [37]: > 512 nM
IC50 [38]: > 512 nM
IC50 [39]: 232 nM
IC50 [40]: > 512 nM
IC50 ([41]; Homo sapiens, LC-1F): > 512 nM
IC50 [42]: > 512 nM
IC50 [43]: > 512 nM
IC50 [44]: > 512 nM
IC50 [45]: > 512 nM
IC50 [46]: > 512 nM
IC50 [47]: > 512 nM
IC50 ([48]; Homo sapiens, GDM-1): 18.3 nM
IC50 [49]: > 512 nM

C/C(=C\c1csc(C)n1)[C@@H]1C[C@@H]2O[C@]2(C)CCC[C@H](C)[C@H](O)[C@@H](C)C(=O)C(C)(C)[C@@H](O)CC(=O)O1 [PATUPILONE]
IC50 [1]: > 32 nM
IC50 [2]: 4.13 nM
IC50 [3]: > 32 nM
IC50 [4]: 2.48 nM
IC50 [5]: 20.6 nM
IC50 [6]: 5.83 nM
IC50 [7]: 0.571 nM
IC50 [8]: 8.28 nM
IC50 [9]: > 32 nM
IC50 ([10]; Homo sapiens, LOUCY): 4.35 nM
IC50 [11]: 0.0499 nM
IC50 [12]: 0.444 nM
IC50 [13]: 2.72 nM
IC50 [14]: 24.5 nM
IC50 [15]: 0.0866 nM
IC50 [16]: 9.82 nM
IC50 ([17]; Homo sapiens, EW-24): > 32 nM
IC50 [18]: 0.802 nM
IC50 ([19]; Homo sapiens, NCI-H1963): 12 nM
IC50 [20]: > 32 nM
IC50 ([21]; Homo sapiens, ECC4): > 32 nM
IC50 [22]: > 32 nM
IC50 [23]: 5.83 nM
IC50 [24]: 1.85 nM
IC50 ([25]; Homo sapiens, RL): > 32 nM
IC50 [26]: 2.18 nM
IC50 [27]: > 32 nM
IC50 [28]: > 32 nM
IC50 [29]: 1.4 nM
IC50 [30]: 1.8 nM
IC50 ([31]; Homo sapiens, MRK-nu-1): 0.9 nM
IC50 [32]: > 32 nM
IC50 [34]: 0.648 nM
IC50 [35]: 9.13 nM
IC50 ([36]; Homo sapiens, CMK): 1.33 nM
IC50 [37]: 4.21 nM
IC50 [38]: 2.47 nM
IC50 [39]: > 32 nM
IC50 [40]: 5.37 nM
IC50 ([41]; Homo sapiens, LC-1F): > 32 nM
IC50 [42]: > 32 nM
IC50 [43]: 5.66 nM
IC50 [44]: 1.35 nM
IC50 [45]: 0.394 nM
IC50 [50]: 4.5 nM
IC50 [46]: 4.1 nM
IC50 [47]: 20.9 nM
IC50 ([48]; Homo sapiens, GDM-1): 4.31 nM
IC50 [49]: > 32 nM

Nc1ccccc1NC(=O)c1ccc(CNC(=O)OCc2cccnc2)cc1 [ENTINOSTAT]
IC50 [3]: > 5000 nM
IC50 ([10]; Homo sapiens, LOUCY): 634 nM
IC50 ([17]; Homo sapiens, EW-24): > 5000 nM
IC50 ([19]; Homo sapiens, NCI-H1963): 116 nM
IC50 ([21]; Homo sapiens, ECC4): 3970 nM
IC50 ([25]; Homo sapiens, RL): > 5000 nM
IC50 ([31]; Homo sapiens, MRK-nu-1): 432 nM
IC50 ([51]; Homo sapiens, SKM-1): > 5000 nM
IC50 [32]: 1890 nM
IC50 [33]: 701 nM
IC50 ([36]; Homo sapiens, CMK): 357 nM
IC50 [39]: > 5000 nM
IC50 ([41]; Homo sapiens, LC-1F): 1120 nM
IC50 [42]: 318 nM
IC50 ([48]; Homo sapiens, GDM-1): 887 nM

CC(C)C[C@@H](C=O)NC(=O)[C@H](CC(C)C)NC(=O)[C@H](CC(C)C)NC(=O)OCc1ccccc1 [MG-132] (Cbz-Leu-Leu-Leu-aldehyde)
IC50 [3]: > 1000 nM
IC50 ([10]; loucy): 255 nM and > 1000 nM
IC50 [52]: 267 nM
IC50 ([17]; Homo sapiens, EW-24): > 1000 nM
IC50 ([17]; ew-24): > 1000 nM
IC50 ([19]; Homo sapiens, NCI-H1963): > 1000 nM
IC50 ([19]; nci-h1963): > 1000 nM
IC50 ([21]; ecc4): > 1000 nM
IC50 ([25]; rl): > 1000 nM
IC50 ([31]; mrk-nu-1): > 1000 nM
IC50 ([51]; skm-1): > 1000 nM
IC50 [32]: 59.6 nM
IC50 [33]: > 1000 nM
IC50 ([36]; cmk): 311 nM and > 1000 nM
IC50 [39]: 191 nM
IC50 ([41]; lc-1f): > 1000 nM
IC50 [42]: > 1000 nM
IC50 [53]: > 1000 nM
IC50 ([48]; gdm-1): 351 nM and > 1000 nM

CC(C)C[C@H](NC(=O)[C@H](Cc1ccccc1)NC(=O)c1cnccn1)B(O)O [BORTEZOMIB]
IC50 [3]: > 20 nM
IC50 ([10]; Homo sapiens, LOUCY): 0.293 nM
IC50 ([17]; Homo sapiens, EW-24): 2.08 nM
IC50 ([19]; Homo sapiens, NCI-H1963): > 20 nM
IC50 ([21]; Homo sapiens, ECC4): > 20 nM
IC50 ([25]; Homo sapiens, RL): > 20 nM
IC50 ([31]; Homo sapiens, MRK-nu-1): > 20 nM
IC50 ([51]; Homo sapiens, SKM-1): > 20 nM
IC50 [32]: 0.329 nM
IC50 [33]: 1.37 nM
IC50 ([36]; Homo sapiens, CMK): 1.29 nM
IC50 [39]: 1.1 nM
IC50 ([41]; Homo sapiens, LC-1F): 3.74 nM
IC50 [42]: 1.56 nM
IC50 ([48]; Homo sapiens, GDM-1): 6.77 nM
